Test results reported in PubChem BioAssay (NCI).
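Assay format: 96-well plates, 48-hour exposure. At the GI50, growth is halved. Definition used: TGI = concentration required for complete inhibition of growth.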

Experiments:
Experiment in all cases: DTP human tumour cell line panel, 48 h
[1] = test system: NCI-H226 lung
[2] = test system: IGROV1 ovarian
[3] = test system: RPMI-8226 leukemia
[4] = test system: SNB-19 CNS
[5] = test system: HT29 colon
[6] = test system: HOP-92 NSCLC
[7] = test system: HOP-62 NSCLC
[8] = test system: NCI-H460 lung
[9] = test system: KM12 colon
[10] = test system: CAKI-1 renal

`COc1ccc(/C(Cl)=C/c2cc(OC)ccc2OC)cc1` was tested, and the TGI [1] was over 100 µM, the TGI [2] was over 100 µM and the TGI [3] was over 100 µM. It also gave a TGI [4] of over 100 µM, a TGI [5] of over 100 µM and a TGI [6] of over 100 µM. The TGI [7] was over 100 µM.
Molecule `O=C1OC[C@H]2[C@@H]1[C@H]1O[C@@H]2C2=C(CCC2)C1=O` has a TGI [1] of over 100 µM, a TGI [2] of over 100 µM and a TGI [3] of over 100 µM. It also gave a TGI [8] of over 100 µM, a TGI [4] of over 100 µM and a TGI [5] of over 100 µM. The TGI [9] was over 100 µM, the TGI [6] was over 100 µM and the TGI [7] was over 100 µM.
`COc1ccc(-c2oc3cc(O)cc(O)c3c(=O)c2OC)cc1` gave a TGI [2] of over 100 µM, a TGI [3] of 69.2 µM and a TGI [8] of 65.6 µM. For the same molecule, the TGI [4] was over 100 µM, the TGI [5] was 68.3 µM and the TGI [6] was 16.1 µM. The TGI [7] was over 100 µM and the TGI [10] was 60 µM.
Molecule `COc1cc2cc(C(=O)N3CC(COS(C)(=O)=O)c4ccc(O)cc43)[nH]c2c(OC)c1OC` (configuration not stated) has a TGI [1] of 0.000531 µM, a TGI [2] of 0.0378 µM and a TGI [4] of 0.012 µM. It also gave a TGI [9] of 0.0033 µM, a TGI [6] of 0.638 µM and a TGI [7] of 0.00198 µM. The GI50 [10] was under 0.0001 µM and the TGI [10] was under 0.0001 µM.
Molecule `O=C(O)c1ccccc1N=Cc1ccc(N(CCCl)CCCl)cc1` has a TGI [2] of over 100 µM, a TGI [3] of over 100 µM and a TGI [8] of over 100 µM. For the same molecule, the TGI [4] was over 100 µM, the TGI [5] was over 100 µM and the TGI [9] was over 100 µM. It also gave a TGI [6] of over 100 µM and a TGI [10] of 34.5 µM.
In the case of `O=C(Cc1ccc(Cl)c(Cl)c1)NCC1(N2CCCCC2)CCCCC1`, the TGI [2] is reported as over 100 µM, the TGI [3] is reported as over 100 µM and the TGI [8] is reported as over 100 µM. It also gave a TGI [4] of over 100 µM, a TGI [5] of over 100 µM and a TGI [9] of over 100 µM. The TGI [6] was over 100 µM, the TGI [7] was over 100 µM and the TGI [10] was over 100 µM.
`CC(C)C(C/C=C1\CC(CO)(COC(=O)C2CCCCC2)OC1=O)C(C)C` (configuration not stated) was tested, and the TGI [1] was 38.3 µM, the TGI [2] was 39.5 µM and the TGI [8] was 76 µM. It also gave a TGI [4] of 31.4 µM, a TGI [5] of 79.5 µM and a TGI [9] of 39.5 µM. It also gave a TGI [6] of 37.5 µM, a TGI [7] of 27.5 µM and a TGI [10] of 43.8 µM.
`c1ccc2c(c1)SCCCSCCSCCCS2` showed a TGI [2] of over 100 µM, a TGI [8] of over 100 µM and a TGI [4] of over 100 µM. The TGI [5] was over 100 µM, the TGI [9] was over 100 µM and the TGI [6] was over 100 µM. The TGI [7] was over 100 µM.
With `O=C(Nn1c(-c2ccccc2)nc2ccccc2c1=O)c1ccccc1O` the TGI [1] was over 100 µM, the TGI [2] was over 100 µM and the TGI [3] was over 100 µM. It also gave a TGI [8] of over 100 µM, a TGI [4] of over 100 µM and a TGI [5] of over 100 µM. It also gave a TGI [9] of over 100 µM, a TGI [6] of over 100 µM and a TGI [7] of over 100 µM.
With `C/C(=N\NC(=S)N(C)C)c1cccnn1` the TGI [1] was 4.83 µM, the TGI [2] was over 40.3 µM and the TGI [3] was over 100 µM. It also gave a TGI [4] of over 100 µM, a TGI [5] of over 100 µM and a TGI [9] of over 100 µM. For the same molecule, the TGI [7] was over 100 µM.
With `O=C1NC(=O)C(C(CC(=O)c2ccc(Cl)cc2)c2ccc(Cl)cc2)C(=O)N1` (configuration not stated) the TGI [1] was over 100 µM, the TGI [2] was over 100 µM and the TGI [3] was over 100 µM. The TGI [8] was over 100 µM, the TGI [4] was over 100 µM and the TGI [5] was over 100 µM. The TGI [9] was over 100 µM, the TGI [6] was over 100 µM and the TGI [7] was over 100 µM.
`CN(C)CCn1c(CO)nc2c1c(=O)n(C)c(=O)n2C` gave a TGI [1] of over 100 µM, a TGI [2] of over 100 µM and a TGI [3] of over 100 µM. For the same molecule, the TGI [8] was over 100 µM, the TGI [4] was over 100 µM and the TGI [5] was over 100 µM. The TGI [9] was over 100 µM, the TGI [7] was over 100 µM and the TGI [10] was over 100 µM.
For `NNC(=O)C1(NC(=O)c2ccccc2)C(c2ccccc2)C(c2ccccc2)=NN1c1ccccc1` (configuration not stated), the TGI [1] was over 100 µM, the TGI [2] was over 100 µM and the TGI [3] was over 100 µM. The TGI [8] was over 100 µM, the TGI [4] was over 100 µM and the TGI [9] was over 100 µM. It also gave a TGI [7] of over 100 µM and a TGI [10] of 92 µM.
